Results as given in US10821093B2, “Antibacterial microelement chelates and the use thereof in animal feeds” (priority 2012, dated 2020).
Like-named read-outs stand apart in the source and are kept apart here.

Experiments:
Streptococcus agalactiae = test: MIC, liquid culture dilution; format: cell-based
LSE = test: Minimal lethal concentration (CID); format: cell-based, Saccharomyces cerevisiae
Procedure: (§1) It is the concentration of the active ingredient that causes the complete death of the microbes. Under sterile conditions within a laminar box, a dilution series was prepared from the liquid culture mediums that were incubated for 24 hours, then from the dilution series 100 μl each was placed onto agar dishes and spread with a sterile glass rod. The incubation period is 24 hours under conditions favorable for the growth of the microbe, then the number of colonies on the agar dishes are counted.
(§2) In the case where no colonies are visible on the culture medium after the incubation, it indicates the microbe killing effect (CID) of the trace element chelate. The number of countable colonies grown on the agar dishes gives the actual MIC value of the given trace element chelate.

Clostridium perfringens = format: cell-based
Saccharomyces cerevisiae = test: MIC, liquid culture dilution; format: cell-based
Staphylococcus aureus = test: MIC, liquid culture dilution; format: cell-based
LACTIC ACID PRODUCERS = test: MIC, liquid culture dilution; format: cell-based
Escherichia coli = test: MIC, liquid culture dilution (single chelates and cross-dilution combinations); format: cell-based
S. tiphy = format: cell-based
Micrococcus luteus = test: MIC, liquid culture dilution; format: cell-based
Salmonella = test: Minimal lethal concentration (CID); format: cell-based
Procedure: as §1, §2

Lactococcus = test: Minimal lethal concentration (CID); format: cell-based
Procedure: as §1, §2

Salmonella enterica = test: MIC, liquid culture dilution (single chelates and cross-dilution combinations); format: cell-based, Salmonella enterica subp. Enterica serovar enteritidis
[1] = system: Brachyspira hyodysenteriae; test: MIC (single chelates and combinations)
Arcanobacterium piogenes = test: MIC; format: cell-based
Clostridium = test: Minimal lethal concentration (CID); format: cell-based
Procedure: as §1, §2

| Compound | Minimal inhibitory concentration (MIC) (Streptococcus agalactiae) | Minimal inhibitory concentration (MIC) (Streptococcus agalactiae; listed as Zn mono-glycinate) | CID concentration (LSE) | Minimal inhibitory concentration (MIC) (Clostridium perfringens) | Minimal inhibitory concentration (MIC) (Saccharomyces cerevisiae) | Minimal inhibitory concentration (MIC) (Staphylococcus aureus) | Minimal inhibitory concentration (MIC) (Staphylococcus aureus; listed as Zn mono-glycinate) | Minimal inhibitory concentration (MIC) (LACTIC ACID PRODUCERS) | Minimal inhibitory concentration (MIC) (Escherichia coli) | CID concentration (S. tiphy) | Minimal inhibitory concentration (MIC) (Micrococcus luteus) | CID concentration (Salmonella; Salmonella) | CID value relative to MIC value (Salmonella; Salmonella strains) | CID concentration (Lactococcus) | Minimal inhibitory concentration (MIC) (Salmonella enterica) | Minimal inhibitory concentration (MIC) [1] | Minimal inhibitory concentration (MIC) (Arcanobacterium piogenes) | CID concentration (Clostridium; Clostridium) | CID value relative to MIC value (Clostridium; Clostridium strains) |
| --- | --- | --- | --- | --- | --- | --- | --- | --- | --- | --- | --- | --- | --- | --- | --- | --- | --- | --- | --- |
| NCC(=O)O.O=S(=O)([O-])[O-].[Zn+2] [Zinc mono-glycinate, zinc mono-glycinate chelate] | 80 ppm | 40 ppm | 800 ppm | 210 ppm | 800 ppm | 40 ppm | 20 ppm | 800 ppm | 100 ppm | 3000 ppm | 60 ppm | 3000 ppm | 30 fold | 800 ppm | 100 ppm | >4000 ppm |  |  |  |
| copper mono-glycinate chelate |  |  | 800 ppm | 50 ppm | 800 ppm |  |  | 800 ppm | 400 ppm |  | 200 ppm |  |  | 800 ppm | 400 ppm | 90 ppm | 92 ppm | 200 ppm | twice as much |
